Consider eight molecules from patent US20120178766A1, “FUROPYRIMIDINEDIONE DERIVATIVES AS TRPAI MODULATORS” (priority 2009, published 2012).

Where only a bound is given, the exact number is not on record here.

For one assay, the target named is T1, human TRPA1 (Homo sapiens, UniProt O75762).
T1 construct: expressed in transfected cells; host or cells: CHO cells (G-418 selection)
The assay is described as follows: 45Calcium uptake assay: inhibition of AITC induced cellular uptake of radioactive calcium, human TRPA1 expressing CHO cells. In kind it is cell-based. Particulars: AITC 30 μM; for inhibition at 1 µM: 1.0 μM compound, read-out: human TRPA1 Percentage inhibition at 1.0 μM; for inhibition at 10 µM: 10.0 μM compound, read-out: human TRPA1 Percentage inhibition at 10.0 μM; for IC50: class symbols. The procedure, abridged:
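CHO cells expressing TRPA1 were preincubated 10 min with compound (0.5% DMSO final), then given AITC (30 μM human, 10 μM rat) plus 5 μCi/ml 45Ca2+ for 3 min. Lysate radioactivity measured by scintillation; IC50 obtained by nonlinear regression of % maximal response without antagonist.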

The target of a further assay is T2, rat TRPA1 (Rattus norvegicus, UniProt Q6RI86).
T2 construct: expressed in transfected cells; host or cells: CHO cells (Zeocin selection)
The assay can be described thus: 45Calcium uptake assay: inhibition of AITC induced cellular uptake of radioactive calcium, rat TRPA1 expressing CHO cells. To be noted: AITC 10 μM; for inhibition at 10 µM: 10.0 μM compound, read-out: rat TRPA1 Percentage inhibition at 10.0 μM; for inhibition at 1 µM: read-out: rat TRPA1 Percentage inhibition; for IC50: class symbols. The format is cell-based. The method, boiled down:
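CHO cells expressing rat or human TRPA1 were pre-treated with compound for 10 min, then given AITC (30 μM human, 10 μM rat) plus 5 μCi/ml 45Ca2+ for 3 min; final DMSO 0.5%. Lysate radioactivity was counted by scintillation. IC50 came from nonlinear regression of concentration-response curves as % of maximal response.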

T1 sequence (O75762 whole entry): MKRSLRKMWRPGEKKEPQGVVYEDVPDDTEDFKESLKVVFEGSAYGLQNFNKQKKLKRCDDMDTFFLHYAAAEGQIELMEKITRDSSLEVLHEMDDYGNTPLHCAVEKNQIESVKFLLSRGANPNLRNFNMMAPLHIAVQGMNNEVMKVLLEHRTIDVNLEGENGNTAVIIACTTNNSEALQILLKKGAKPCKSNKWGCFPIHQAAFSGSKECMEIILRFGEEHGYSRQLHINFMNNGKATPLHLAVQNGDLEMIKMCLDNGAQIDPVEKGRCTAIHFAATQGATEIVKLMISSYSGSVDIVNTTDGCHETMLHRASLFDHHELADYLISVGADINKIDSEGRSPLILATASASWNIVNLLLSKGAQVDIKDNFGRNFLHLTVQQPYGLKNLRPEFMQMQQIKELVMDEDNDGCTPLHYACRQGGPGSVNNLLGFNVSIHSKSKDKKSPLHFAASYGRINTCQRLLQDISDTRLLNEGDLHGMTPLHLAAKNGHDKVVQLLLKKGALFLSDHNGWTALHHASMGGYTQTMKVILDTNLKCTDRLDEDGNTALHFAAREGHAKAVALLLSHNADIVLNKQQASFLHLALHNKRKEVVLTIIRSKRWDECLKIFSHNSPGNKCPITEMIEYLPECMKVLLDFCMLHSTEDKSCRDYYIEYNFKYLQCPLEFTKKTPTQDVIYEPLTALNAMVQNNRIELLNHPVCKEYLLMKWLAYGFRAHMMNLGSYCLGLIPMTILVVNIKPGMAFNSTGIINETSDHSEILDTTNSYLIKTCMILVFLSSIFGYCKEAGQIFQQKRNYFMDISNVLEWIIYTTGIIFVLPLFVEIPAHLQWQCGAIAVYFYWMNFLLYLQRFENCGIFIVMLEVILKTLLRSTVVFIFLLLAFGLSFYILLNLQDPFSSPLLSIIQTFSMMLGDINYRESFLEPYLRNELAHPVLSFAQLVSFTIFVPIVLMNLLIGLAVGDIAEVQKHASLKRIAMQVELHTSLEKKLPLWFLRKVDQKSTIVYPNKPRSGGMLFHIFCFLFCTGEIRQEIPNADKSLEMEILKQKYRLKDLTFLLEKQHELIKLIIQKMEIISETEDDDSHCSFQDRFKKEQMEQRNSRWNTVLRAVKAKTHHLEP
T2 sequence (Q6RI86 whole entry): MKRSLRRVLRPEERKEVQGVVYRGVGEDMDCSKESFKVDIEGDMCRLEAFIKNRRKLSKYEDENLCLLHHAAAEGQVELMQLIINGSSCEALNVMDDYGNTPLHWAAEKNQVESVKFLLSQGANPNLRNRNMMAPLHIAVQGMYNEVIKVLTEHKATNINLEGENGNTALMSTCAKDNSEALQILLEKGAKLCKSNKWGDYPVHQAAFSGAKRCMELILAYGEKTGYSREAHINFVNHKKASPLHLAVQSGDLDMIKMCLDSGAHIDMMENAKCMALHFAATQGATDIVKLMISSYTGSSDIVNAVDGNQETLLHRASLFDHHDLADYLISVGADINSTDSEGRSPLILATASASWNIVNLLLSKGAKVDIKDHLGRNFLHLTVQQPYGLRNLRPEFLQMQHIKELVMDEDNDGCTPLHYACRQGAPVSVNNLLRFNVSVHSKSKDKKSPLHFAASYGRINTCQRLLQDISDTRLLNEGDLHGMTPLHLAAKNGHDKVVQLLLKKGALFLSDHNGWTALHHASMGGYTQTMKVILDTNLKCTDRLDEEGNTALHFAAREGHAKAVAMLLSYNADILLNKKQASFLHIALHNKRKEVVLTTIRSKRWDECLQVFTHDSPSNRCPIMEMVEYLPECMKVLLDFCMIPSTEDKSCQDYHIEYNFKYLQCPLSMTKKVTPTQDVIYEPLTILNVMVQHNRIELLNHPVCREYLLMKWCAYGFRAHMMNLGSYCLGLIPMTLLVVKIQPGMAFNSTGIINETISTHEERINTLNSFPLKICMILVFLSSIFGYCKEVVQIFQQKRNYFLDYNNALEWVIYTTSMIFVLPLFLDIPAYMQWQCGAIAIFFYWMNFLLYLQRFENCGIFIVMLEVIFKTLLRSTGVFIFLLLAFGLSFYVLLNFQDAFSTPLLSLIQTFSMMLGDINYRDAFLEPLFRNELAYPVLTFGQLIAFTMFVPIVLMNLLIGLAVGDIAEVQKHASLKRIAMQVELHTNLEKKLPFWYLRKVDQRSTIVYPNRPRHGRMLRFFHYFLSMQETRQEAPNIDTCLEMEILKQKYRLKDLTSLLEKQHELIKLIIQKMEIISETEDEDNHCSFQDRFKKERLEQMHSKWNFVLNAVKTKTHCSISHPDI

With `Cn1c(=O)c2c(CC(=O)Nc3nc(-c4cc(F)c(OCCC(F)(F)F)c(F)c4)cs3)coc2n(C)c1=O` [Example 49, N1-{4-[3,5-Difluoro-4-(3,3,3-trifluoropropoxy)phenyl]-1,3-thiazol-2-yl}-2-(1,3-dimethyl-2,4-dioxo-1,2,3,4-tetrahydrofuro[2,3-d]pyrimidin-5-yl)acetamide], at human TRPA1, the inhibition at 1 µM stood at 95.6%, the inhibition at 10 µM turned out to be 98.3% and the IC50 is under 50 nM. Besides, on rat TRPA1, the inhibition at 10 µM amounted to 97.7%, the inhibition at 1 µM came out at 86.6% and the concentration for half-maximal inhibition (IC50) is under 50 nM.

Take `Cc1oc2c(c1CC(=O)Nc1nc(-c3ccc(C(F)(F)F)cc3)cs1)c(=O)n(C)c(=O)n2C` [Example 50, N1-{4-[4-(Trifluoromethyl)phenyl]-1,3-thiazol-2-yl}-2-(1,3,6-trimethyl-2,4-dioxo-1,2,3,4-tetrahydrofuro[2,3-d]pyrimidin-5-yl)acetamide]: the inhibition at 1 µM at human TRPA1 turned out to be 99.6%; at rat TRPA1, 99.9%. Also, the inhibition at 10 µM on human TRPA1 is 98.3%; on rat TRPA1, 100%.

In the case of `Cc1oc2c(c1CC(=O)Nc1nc(-c3cccc(C(F)(F)F)c3)cs1)c(=O)n(C)c(=O)n2C` [Example 51, N1-{4-[3-(Trifluoromethyl)phenyl]-1,3-thiazol-2-yl}-2-(1,3,6-trimethyl-2,4-dioxo-1,2,3,4-tetrahydrofuro[2,3-d]pyrimidin-5-yl)acetamide], at human TRPA1, the inhibition at 1 µM was found to be 99.8% and the inhibition at 10 µM is 100%. Also, at rat TRPA1, the inhibition at 10 µM was 100% and the inhibition at 1 µM is 100%.

With `Cc1oc2c(c1CC(=O)Nc1nc(-c3cccc(OC(F)(F)F)c3)cs1)c(=O)n(C)c(=O)n2C` [Example 52, N1-{4-[3-(Trifluoromethoxy)phenyl]-1,3-thiazol-2-yl}-2-(1,3,6-trimethyl-2,4-dioxo-1,2,3,4-tetrahydrofuro[2,3-d]pyrimidin-5-yl)acetamide], on human TRPA1, the inhibition at 1 µM was 99.1% and the inhibition at 10 µM was determined as 99.2%. At rat TRPA1, the inhibition at 10 µM was 100% and the inhibition at 1 µM was 100%.

As for `Cc1oc2c(c1CC(=O)Nc1nc(-c3ccc(OC(F)(F)F)cc3)cs1)c(=O)n(C)c(=O)n2C` [Example 53, N1-{4-[4-(Trifluoromethoxy)phenyl]-1,3-thiazol-2-yl}-2-(1,3,6-trimethyl-2,4-dioxo-1,2,3,4-tetrahydrofuro[2,3-d]pyrimidin-5-yl)acetamide], on human TRPA1, the inhibition at 1 µM was determined as 99.7% and the inhibition at 10 µM is 97.3%. For the same molecule, on rat TRPA1, the inhibition at 10 µM amounted to 100% and the inhibition at 1 µM was 100%.

In the case of `Cc1oc2c(c1CC(=O)Nc1nc(-c3ccc(Cl)c(Cl)c3)cs1)c(=O)n(C)c(=O)n2C` [Example 54, N1-[4-(3,4-Dichlorophenyl)-1,3-thiazol-2-yl]-2-(1,3,6-trimethyl-2,4-dioxo-1,2,3,4-tetrahydrofuro[2,3-d]pyrimidin-5-yl)acetamide], the IC50 was under 50 nM on human TRPA1 and 50 to 100 nM at rat TRPA1.

For `Cc1oc2c(c1CC(=O)Nc1nc(-c3cccc(Cl)c3Cl)cs1)c(=O)n(C)c(=O)n2C` [Example 55, N1-[4-(2,3-Dichlorophenyl)-1,3-thiazol-2-yl]-2-(1,3,6-trimethyl-2,4-dioxo-1,2,3,4-tetrahydrofuro[2,3-d]pyrimidin-5-yl)acetamide], on human TRPA1, the inhibition at 1 µM came out at 95.8% and the inhibition at 10 µM stood at 99%. At rat TRPA1, the inhibition at 10 µM turned out to be 100% and the inhibition at 1 µM was 97.7%.

In the case of `Cc1oc2c(c1CC(=O)Nc1nc(-c3ccc(F)c(C(F)(F)F)c3)cs1)c(=O)n(C)c(=O)n2C` [Example 58, N1-{4-[4-Fluoro-3-(trifluoromethyl)phenyl]-1,3-thiazol-2-yl}-2-(1,3,6-trimethyl-2,4-dioxo-1,2,3,4-tetrahydrofuro[2,3-d]pyrimidin-5-yl)acetamide], the IC50 on human TRPA1 and at rat TRPA1 was under 50 nM each time.

A word on the inhibition: it is how much of the control response was suppressed. For orientation: IC50 means the point on the concentration scale where inhibition reaches its midpoint.
